Active and inactive are the calls of the source. No cut-off for these calls is given here.
Key:
A549 [1] = test: Inhibition of glycolysis in human A549 cells assessed as reduction in lactate production incubated for 8 hrs by colorimetric-oxidase mediator analysis; type: functional, cell-based
A549 [2] = test: Inhibition of glycolysis in human A549 cells assessed as reduction in glucose consumption incubated for 8 hrs by colorimetric-oxidase mediator analysis; type: functional, cell-based

O=C(O)C(Cl)Cl
inhibition (A549 [1]): Active
inhibition (A549 [2]): Active

Source: ChEMBL document CHEMBL5038601, “Carbohydrate-Based NK1R Antagonists with Broad-Spectrum Anticancer Activity” (J Med Chem, 2021)
